From article PMC9331863 (Antibiotics, 2022)
Like-named read-outs stand apart in the source and are kept apart here.

Tests used:
[1] = Population pharmacokinetic modelling of dalbavancin plasma concentrations (TDM) in patients; details: for Q, inter-compartmental clearance / V1, central volume of distribution / V2, peripheral volume of distribution: typical value (%RSE)
Experimental: The study was approved by the local Ethics Committee (registration number 897/2021/Oss/AOUBo). Signed informed consent was waived due to the retrospective and observational nature of the investigation according to hospital agreements.
The dose amount (1000 mg or 1500 mg) was arbitrarily decided by the infectious diseases consultant at each patient center. The decision to administer any additional doses was taken in relation to the clinical evaluation of disease progression after at least 4 weeks from the administration of the second dose and it was based on the patient’s physical examination and on the trend of inflammatory biomarkers.
Blood samples were collected at different time-points after the second dose and sent to our lab for analysis. […] The lower limit of quantification was 0.5 mg/L.
At a first stage, a basic model was developed, by comparing one-, two- and three-compartment models with linear elimination. All individual parameters were log-normally distributed. Exponential random effects were assumed to describe inter-individual variability. Correlations between random effects were tested in the variance–covariance matrix and implemented into the structural model accordingly. Residual variability was tested according to three different error models (constant, proportional and combined error model).
The following covariates were tested on the PK parameters of the base model: age, gender, weight, height, serum albumin, serum creatinine and CLCR. The parameter–covariate relationships were modeled as additive or proportional shifts from the reference category for binary covariates, whereas the effect of continuous covariates was modeled using a power function. A covariate was included in the model according to the results of the likelihood ratio test (LRT) and if a reduction in the BIC and a decrease in the interpatient variability of the fixed-effect parameters were obtained. Descriptions of the pharmacokinetic model building and covariate analysis are reported in the Supplementary Materials.

[2] = cited from earlier work
[3] = real-world use beyond approved indications, outpatient antimicrobial treatment; cited from earlier work
[4] = cited from earlier work; remark: listed apart in the source
Description: Data were retrieved from registrative phase II/III clinical trials.

[5] = median (min–max) of population, 69 patients, two-compartment final model
[6] = three-compartment model, 703 patients with ABSSSI, ref Carrothers et al. [12]

SMILES: CN[C@H]1C(=O)N[C@@H]2Cc3ccc(cc3)Oc3cc4cc(c3O[C@@H]3O[C@H](C(=O)O)[C@@H](O)[C@H](O)[C@H]3NC(=O)CCCCCCCCC(C)C)Oc3ccc(cc3Cl)[C@@H](O)[C@@H]3NC(=O)[C@H](NC(=O)[C@@H]4NC(=O)[C@@H](NC2=O)c2cc(cc(O)c2Cl)Oc2cc1ccc2O)c1ccc(O)c(c1)-c1c(O[C@H]2O[C@H](CO)[C@@H](O)[C@H](O)[C@@H]2O)cc(O)cc1[C@@H](C(=O)NCCCN(C)C)NC3=O [dalbavancin]
- Q, inter-compartmental clearance ([1]; base model): 0.026 (17.9) L/h
- V1, central volume of distribution ([1]; base model): 6.15 (4.79) L
- V2, peripheral volume of distribution ([1]; base model): 10.51 (13.7) L
- Q, inter-compartmental clearance ([1]; final model): 0.026 (18.1) L/h
- V1, central volume of distribution ([1]; final model): 6.14 (5.26) L
- V2, peripheral volume of distribution ([1]; final model): 9.52 (19.0) L
- CL, total body clearance ([1]; human, in vivo): 0.029 (11.6) L/h
- Vd ([1]; human, in vivo): 15.7 L
- clearance ([1]; human, in vivo, CL, total body clearance): 0.683 mL/min
- clearance ([1]; human, in vivo, population CL): 0.717 mL/min
- population V1 [1, 5]: 6.21 (5.10–7.19) L
- population V2 [1, 5]: 9.48 (7.60–11.89) L
- penetration rate into bone tissue [2]: 13.1%
- overall clinical success rate [3]: greater than 80%
- elimination half-life [4]: > 180 h
- population CL [4, 6]: 0.053 L/h
- total V [4, 6]: 15.0 L
- population CL ([4]; two-compartment model, 532 patients (ABSSSI, bloodstream infections), ref Buckwalter et al. [11]): 0.057 L/h
- total V ([4]; two-compartment model, 532 patients, ref Buckwalter et al. [11]): 15.9 L
